# Assay results published in publication PMC5893615, “Inhibition of homoserine dehydrogenase by formation of a cysteine-NAD covalent complex” (Scientific Reports, 2018).
# B1: Homoserine dehydrogenase (StHSD) (Sulfurisphaera tokodaii str. 7) (protein)
# chain: MKLLLFGYGNVGKAFRKLLHEKRSPELNDVIIGGIVTRRGIMLQDKEDFTPDLEGDVFKAFEKIKPDIIVDVSSANYNNGEPSLSLYKEAIKDGVNIITTNKAPLALAFNEIFSLARSKGVKIGFQGTVMSGTPSINLYRVLPGSRVIKIRGILNGTTNFILTLMNKGVSFEEALKEAQRRGYAEEDPTLDINGFDAAAKITILANFMIGNSVTIKDVKFEGINRDLPKNEKIKLIAYADEKEVWVKPLPISQDDPLYNVDGVENALEITTDIQSILIRGPGAGPVNAAYGALSDLILLKRDCL
# Tests used:
# [1] = target: T1, Homoserine dehydrogenase (StHSD) (Sulfurisphaera tokodaii, UniProt F9VNG5); assay: crystal structure with NAD at […] Å; Ki from Dixon plots of homoserine oxidation by purified enzyme; difference UV spectrum; format: biochemical
# T1 construct: gene hom
# [2] = target: T1, Homoserine dehydrogenase (StHSD); assay: crystal structure with cysteine at […] Å; steady-state kinetics (apparent Km); format: biochemical; conditions: cited from earlier work
# [3] = target: T1, Homoserine dehydrogenase (StHSD); assay: initial velocity and product inhibition kinetics of NAD-dependent oxidation by purified enzyme; format: biochemical
# [4] = target: T1, Homoserine dehydrogenase (StHSD); assay: product inhibition kinetics of homoserine oxidation (double reciprocal plots); format: biochemical
# [5] = substrate: NC(=O)c1ccc[n+]([C@@H]2O[C@H](COP(=O)([O-])OP(=O)(O)OC[C@H]3O[C@@H](n4cnc5c(N)ncnc54)[C@H](OP(=O)(O)O)[C@@H]3O)[C@@H](O)[C@H]2O)c1; assay: steady-state kinetics of purified enzyme (apparent Km); format: biochemical, Sulfurisphaera tokodaii; conditions: Phe49 could exclude the C2′ phosphate group of NADP; varied: cofactor
molecule,measurement,setting,value
N[C@@H](CS)C(=O)O [cysteine],Ki,[1],11 µM
NC(=O)c1ccc[n+]([C@@H]2O[C@H](COP(=O)([O-])OP(=O)(O)OC[C@H]3O[C@@H](n4cnc5c(N)ncnc54)[C@H](O)[C@@H]3O)[C@@H](O)[C@H]2O)c1 [NAD],Km,[2],330 µM
N[C@@H](CCO)C(=O)O [homoserine],initial velocity and product inhibition kinetics of NAD-dependent oxidation by p,[3],"NAD binds to the free form of the enzyme, after which homoserine binds to the enzyme-NAD complex"
NC(=O)C1=CN([C@@H]2O[C@H](COP(=O)(O)OP(=O)(O)OC[C@H]3O[C@@H](n4cnc5c(N)ncnc54)[C@H](O)[C@@H]3O)[C@@H](O)[C@H]2O)C=CC1 [NADH],product inhibition kinetics of homoserine oxidation (double reciprocal plots),[4],which suggests that NADH acts as a competitive inhibitor of NAD
B1,Km,[5],1200 µM
